Experiments:
Assay in all cases: relative viability (nuclei count vs DMSO), 5 days (fraction); higher = more cells survive
ALW-II-49-7 + Foretinib = compound: Cc1ccc(C(=O)Nc2cccc(C(F)(F)F)c2)cc1Nc1cncc(C(N)=O)c1 [ALW-II-49-7] + COc1cc2c(Oc3ccc(NC(=O)C4(C(=O)Nc5ccc(F)cc5)CC4)cc3F)ccnc2cc1OCCCN1CCOCC1 [Foretinib] (partner 0.25 µM)
In short: (§1)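 Nuclei were stained with Hoechst during a one-step fixation (final 0.05% Triton X-100, 1% formaldehyde, 1 ug/ml Hoechst) carried out 5 days after dosing, then counted on 4× images. The cells, lung cancer lines in 1536-well plates, had been dosed by pin tool the day after seeding with one drug alone or a fixed anchor-drug dose plus five library-drug doses (not always all listed) in √10 steps. Relative viability is the nuclei count in treated wells divided by that in vehicle wells, and each value is the median of duplicate plates.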

XMD13-2 + Palbociclib = compound: C1CC1C(=O)NC2=NNC3=C2C=CC(=C3)C4=CC(=CC=C4)C(=O)NC5CC5 [XMD13-2] + CC(=O)c1c(C)c2cnc(Nc3ccc(N4CCNCC4)cn3)nc2n(C2CCCC2)c1=O [Palbociclib] (partner 0.5 µM)
In short: as §1

Dasatinib + Crizotinib = compound: Cc1nc(Nc2ncc(C(=O)Nc3c(C)cccc3Cl)s2)cc(N2CCN(CCO)CC2)n1 [Dasatinib] + C[C@@H](Oc1cc(-c2cnn(C3CCNCC3)c2)cnc1N)c1c(Cl)ccc(F)c1Cl [Crizotinib] (partner 1 µM)
In short: as §1

XMD13-2 + Decitabine = compound: C1CC1C(=O)NC2=NNC3=C2C=CC(=C3)C4=CC(=CC=C4)C(=O)NC5CC5 [XMD13-2] + Nc1ncn([C@H]2C[C@H](O)[C@@H](CO)O2)c(=O)n1 [Decitabine] (partner 2 µM)
In short: as §1

Cell Line | relative viability (ALW-II-49-7 + Foretinib; first compound 0.08 µM) | relative viability (ALW-II-49-7 + Foretinib; first compound 0.253 µM) | relative viability (ALW-II-49-7 + Foretinib; first compound 2.53 µM) | relative viability (ALW-II-49-7 + Foretinib; first compound 8 µM) | relative viability (XMD13-2 + Palbociclib; first compound 0.05 µM) | relative viability (XMD13-2 + Palbociclib; first compound 0.1581 µM) | relative viability (XMD13-2 + Palbociclib; first compound 0.5 µM) | relative viability (XMD13-2 + Palbociclib; first compound 1.581 µM) | relative viability (XMD13-2 + Palbociclib; first compound 5 µM) | relative viability (Dasatinib + Crizotinib; first compound 0.005 µM) | relative viability (Dasatinib + Crizotinib; first compound 0.01581 µM) | relative viability (Dasatinib + Crizotinib; first compound 0.05 µM) | relative viability (Dasatinib + Crizotinib; first compound 0.1581 µM) | relative viability (Dasatinib + Crizotinib; first compound 0.5 µM) | relative viability (XMD13-2 + Decitabine; first compound 0.05 µM) | relative viability (XMD13-2 + Decitabine; first compound 0.1581 µM) | relative viability (XMD13-2 + Decitabine; first compound 0.5 µM) | relative viability (XMD13-2 + Decitabine; first compound 1.581 µM) | relative viability (XMD13-2 + Decitabine; first compound 5 µM) | relative viability (ALW-II-49-7 + Foretinib; first compound 0.8 µM)
HCC-78 | 0.524 | 0.487 | 0.528 | 0.586 | 0.45 | 0.459 | 0.448 | 0.438 | 0.483 | 0.314 | 0.289 | 0.25 | 0.158 | 0.145 | 0.691 | 0.737 | 0.664 | 0.613 | 0.61 | 
HCC-366 | 1 | 1.02 | 1 | 1.08 | 0.466 | 0.362 | 0.473 | 0.407 | 0.403 | 0.374 | 0.18 | 0.158 | 0.0803 | 0.0691 | 0.332 | 0.34 | 0.33 | 0.341 | 0.378 | 0.941
HCC-827 | 1.02 | 1.13 | 0.954 | 1.02 | 0.512 | 0.462 | 0.439 | 0.459 | 0.377 | 0.924 | 0.82 | 0.807 | 0.385 | 0.145 | 0.317 | 0.365 | 0.281 | 0.719 | 0.343 | 1.07
HOP-62 | 1.22 | 1.14 | 0.935 | 0.837 | 0.464 | 0.485 | 0.448 | 0.413 | 0.348 | 1.16 | 0.966 | 0.91 | 0.816 | 0.165 | 0.233 | 0.204 | 0.195 | 0.203 | 0.199 | 1.17
IA-LM | 1.06 | 0.999 | 1.02 | 0.416 |  |  |  |  |  | 1.05 | 1.06 | 1.45 | 0.674 | 0.442 |  |  |  |  |  | 1.28
LC-2-ad | 0.863 | 0.881 | 0.559 | 0.905 | 0.504 | 0.477 | 0.538 | 0.486 | 0.47 | 0.416 | 0.329 | 0.326 | 0.257 | 0.2 | 0.797 | 0.728 | 0.828 | 0.79 | 0.712 | 0.929
LCLC-97TM1 | 0.869 | 0.894 | 0.939 | 0.933 | 0.217 | 0.284 | 0.229 | 0.219 | 0.182 | 0.336 | 0.485 | 0.307 | 0.238 | 0.146 | 0.241 | 0.23 | 0.202 | 0.168 | 0.195 | 1.06
LCLC-103H | 0.707 | 0.832 | 0.735 | 0.77 | 0.485 | 0.44 | 0.466 | 0.477 | 0.481 | 0.992 | 1.05 | 0.968 | 0.734 | 0.488 | 0.712 | 0.748 | 0.765 | 0.719 | 0.756 | 0.926
NCI-H522 |  |  |  |  | 0.931 | 0.873 | 1.22 | 0.875 | 0.885 |  |  |  |  |  | 0.615 | 0.654 | 0.633 | 0.546 | 0.721 | 
NCI-H596 | 0.949 | 0.902 | 0.841 | 0.937 |  |  |  |  |  | 0.966 | 0.811 | 0.637 | 0.519 | 0.315 | 0.934 | 1.02 | 1 | 1.03 | 1.29 | 0.886
NCI-H1299 | 1.09 | 1.16 | 0.996 | 0.965 |  |  |  |  |  | 0.966 | 0.975 | 0.779 | 0.274 | 0.256 |  |  |  |  |  | 1.09
NCI-H1395 | 1.09 | 1.03 | 1.03 | 0.943 | 0.757 | 0.634 | 0.631 | 0.656 | 0.715 |  |  |  |  |  | 0.845 | 0.738 | 0.753 | 0.661 | 0.706 | 1
NCI-H1563 | 0.942 | 0.97 | 0.95 | 0.899 |  |  |  |  |  | 0.803 | 0.673 | 0.679 | 0.592 | 0.577 |  |  |  |  |  | 0.948
NCI-H1623 | 0.889 | 0.809 | 0.649 | 0.859 |  |  |  |  |  |  |  |  |  |  |  |  |  |  |  | 0.87
NCI-H1648 |  |  |  |  | 0.309 |  | 0.273 | 0.275 | 0.235 |  |  |  |  |  | 0.507 |  | 0.515 | 0.475 | 0.579 | 
NCI-H1703 | 0.271 | 0.407 | 0.308 | 0.352 |  |  |  |  |  | 0.652 | 0.18 | 0.203 | 0.154 | 0.108 |  |  |  |  |  | 0.306
NCI-H1792 |  |  |  |  | 0.773 | 0.691 | 0.686 | 0.765 | 0.687 | 0.938 | 0.916 | 0.874 | 0.753 | 0.51 | 0.625 | 0.507 | 0.581 | 0.551 | 0.48 | 
NCI-H1793 | 0.667 | 0.642 | 0.701 | 0.855 | 0.357 | 0.34 | 0.327 | 0.324 | 0.273 |  |  |  |  |  | 0.517 | 0.481 | 0.581 | 0.431 | 0.507 | 0.728
NCI-H2228 | 1.07 | 0.651 | 0.848 | 0.795 | 1.03 | 0.779 | 0.724 | 0.709 | 0.818 | 0.296 | 0.431 | 0.257 | 0.152 | 0.17 |  |  |  |  |  | 0.736
NCI-H2342 | 1.19 | 0.986 | 1.03 | 0.981 | 0.517 | 0.522 | 0.546 | 0.488 | 0.502 |  |  |  |  |  | 0.724 | 0.841 | 0.778 | 0.716 | 0.807 | 1.07
SW 900 | 0.943 | 0.866 | 0.913 | 0.831 | 0.592 | 0.382 | 0.669 | 0.549 | 0.589 |  |  |  |  |  | 0.51 | 0.454 | 0.447 | 0.439 | 0.447 | 0.96

Source: the supplement of paper PMC10307832
